According to US20230317203A1, “SCREENING METHOD” (University of Leeds, priority 2022, published 2023):
Read-outs that look alike come from different tables or passages of the source.

Columns and labels:
[1] = target: T1, BRISC (Homo sapiens, UniProt P46736+Q15018+Q9NXR7); assay: IQF K63-linked diUb DUB activity assay, BRISC; format: biochemical; parameters: made in house; host or cells: Spodoptera frugiperda (Sf9) insect cells; conditions: for inhibition of BRISC DUB activity: IQF assay, BRISC 1 nM
Method: (§1) BRISC complexes were tested for activity in DUB reaction buffer containing 50 mM HEPES-NaOH pH 7.0, 100 mM NaCl, 0.1 mg/mL BSA, 1 mM DTT, and 0.003% Brij-35. […] Inhibitors were assayed at concentrations up to 200 μM. 20 μL enzyme reactions were carried out in 384-well black flat-bottom low flange plates (Corning; 35373). DUB activity was measured using internally quenched fluorescent (IQF) K63-linked diUb (Lifesensors, catalogue number: DU6303) at 50 or 100 nM. Cleaved diUb was monitored by measuring fluorescence intensity (Ex. 540 nm, Em. 580 nm; dichroic mirror 560 nm). Fluorescence intensity was measured every minute for 30 minutes at 30° C. Fluorescence intensity units for the first 10 minutes were plotted against time to generate a linear reaction progress curve, where the initial velocity (v0) corresponds to the gradient of the curve. IC50 values were calculated using the GraphPad Prism (v8.0) built-in dose-response equation for inhibitor concentration vs. response (variable slope).
(§2) A high throughput biochemical screen was designed to identify inhibitors of BRISC, based on the ability of small molecules to inhibit BRISC cleavage of a K63-linked di-ubiquitin substrate. The di-ubiquitin substrate is designed with a fluorescent TAMRA dye on the proximal ubiquitin moiety and fluorescence quencher on the distal ubiquitin molecule (FIG. 1A). Upon isopeptidase bond cleavage, fluorescence is detected, enabling continuous fluorescent readout of deubiquitylase activity over time (FIG. 1A). The assay conditions were optimised and used to test an in-house compound library comprising of ˜300 published and custom-made kinase inhibitors. From this screen, two hits were identified, compounds AT7519 (well H20) and YM201636 (well P12) (FIG. 1B). The specificity of these compounds was assessed against the broad-spectrum DUB ubiquitin-specific protease-2 (USP2) and the serine protease trypsin which cleave K63-Ub substrate under the same conditions. […] UV-Vis spectroscopy analyses of the compound in well H20 used in the screen compared to the Synkinase and Sellechem AT7519 compounds identified an additional peak in the H20 spectra (FIG. 5C). […] The synthesis of the two isomers was confirmed using mass spectrometry fragmentation analyses (FIG. 5E) and the inhibitory effect of the isomers was tested against BRISC.

[2] = target: T2, AMSH-LP (Homo sapiens, UniProt Q96FJ0); assay: IQF assay with JAMM/MPN DUB AMSH-LP; format: biochemical; conditions: FIG. 1E
T2 sequence (Q96FJ0 1-436): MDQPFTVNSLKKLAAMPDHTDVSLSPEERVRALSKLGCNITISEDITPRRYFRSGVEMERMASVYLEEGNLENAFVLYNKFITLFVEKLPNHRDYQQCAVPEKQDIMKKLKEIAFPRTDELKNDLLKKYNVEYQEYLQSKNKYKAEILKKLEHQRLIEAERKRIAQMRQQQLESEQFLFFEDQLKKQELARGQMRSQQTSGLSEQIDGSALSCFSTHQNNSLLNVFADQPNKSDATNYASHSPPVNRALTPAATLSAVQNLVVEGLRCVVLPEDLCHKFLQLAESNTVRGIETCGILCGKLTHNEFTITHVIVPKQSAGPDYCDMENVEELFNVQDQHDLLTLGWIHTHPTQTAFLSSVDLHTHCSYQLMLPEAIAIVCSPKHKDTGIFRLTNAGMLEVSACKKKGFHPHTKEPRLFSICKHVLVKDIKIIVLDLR
Description: (§3) FIGS. 1A-1F show the development a high-throughput screen to identify first-in-class DUB inhibitors. FIG. 1A depicts a diagram of a TAMRA-linked IQF di-ubiquitin substrate (left) and BRISC DUB activity against a fluorescent K63-linked substrate (right).

[3] = target: ARISC (Homo sapiens, UniProt P46736+Q6UWZ7+Q9NXR7); assay: IQF assay with ARISC; format: biochemical; conditions: FIG. 1E
Description: as §3

[4] = target: ARISC-RAP80 (Homo sapiens, UniProt P46736+Q6UWZ7+Q9NXR7); assay: IQF assay with ARISC-RAP80; format: biochemical; conditions: FIG. 1E
Description: as §3

[5] = target: T1, BRISC; assay: Mass photometry of BRISC oligomeric state; format: binding; conditions: purified BRISC mixed with inhibitor, FIG. 2B
Method: (§4) Microscope coverslips were prepared as previously described^33. All mass photometry experiments were performed using a One^MP mass photometer (Refeyn Ltd, Oxford, UK). For preliminary BRISC-inhibitor measurements, 1 μM BRISC(FL) was mixed with either DMSO or inhibitor at 330 μM and incubated for 15 minutes on ice. Prior to MP measurement, the BRISC-inhibitor mix was diluted in gel filtration buffer (25 mM HEPES, 150 mM NaCl, 1 mM TCEP) for a final concentration of BRISC at 10 nM (0.05% DMSO). 12 μL of this dilution was used for the final MP measurement, following autofocus stabilisation. […] The BRISC-inhibitor mix was used directly for MP measurement using buffer-free autofocus stabilisation. Movies were recorded for 60 seconds using AcquireMP (Refeyn, UK), and were processed using DiscoverMP (Refeyn, UK). Mass photometry image processing has been previously described^33. Briefly, contrast-to-mass (C2M) calibration was performed using protein standards (66-669 kDa) diluted in gel filtration buffer. […] The mass distribution from each run is in a histogram, where count refers to each landing event and a Gaussian sum is fitted to the data. The relative amount of each species is calculated as the area of each Gaussian, where a refers to the standard deviation of the fitted Gaussian. […] Curves were fitted and EC50 values were calculated using the GraphPad Prism (v8.0) built-in dose-response equation for concentration of agonist vs. response (variable slope).

[6] = system: BRISC; assay: Mass photometry of BRISC oligomeric state; format: binding, human; conditions: mass photometry
Method: as §4

[7] = target: T3, BRISC(FL) (Homo sapiens, UniProt P46736+Q15018+Q9NXR7); assay: Native mass spectrometry of BRISC with inhibitor; format: binding; conditions: 10 μM BRISC(FL), 1 mM inhibitor
T3 construct: The four-subunit human BRISC (full-length (FL) and MERIT40ΔN, Abraxas2ΔC) complex was cloned; made in house; host or cells: Spodoptera frugiperda (Sf9) insect cells
Method: Samples were buffer exchanged into 500 mM ammonium acetate using Zeba Spin 7K MWCO desalting columns (ThermoFisher). Gold and palladium coated nanospray tips were prepared in-house and mounted on the nano-electrospray ionisation source. Mass spectra were acquired on a Q Exactive Ultra-High Mass Range Hybrid Quadrupole-Orbitrap mass spectrometer (Thermo Fisher), optimised for mass resolution at high m/z ratios. Data were visualised and processed using Mass Lynx (v4.1) and UniDec (v2.7.1).

[8] = target: USP2 (Homo sapiens, UniProt O75604); assay: IQF di-ubiquitin assay, USP2 specificity; format: biochemical; conditions: USP2 100 nM, K63-Ub substrate
Chain of USP2 (O75604 whole entry, species assumed): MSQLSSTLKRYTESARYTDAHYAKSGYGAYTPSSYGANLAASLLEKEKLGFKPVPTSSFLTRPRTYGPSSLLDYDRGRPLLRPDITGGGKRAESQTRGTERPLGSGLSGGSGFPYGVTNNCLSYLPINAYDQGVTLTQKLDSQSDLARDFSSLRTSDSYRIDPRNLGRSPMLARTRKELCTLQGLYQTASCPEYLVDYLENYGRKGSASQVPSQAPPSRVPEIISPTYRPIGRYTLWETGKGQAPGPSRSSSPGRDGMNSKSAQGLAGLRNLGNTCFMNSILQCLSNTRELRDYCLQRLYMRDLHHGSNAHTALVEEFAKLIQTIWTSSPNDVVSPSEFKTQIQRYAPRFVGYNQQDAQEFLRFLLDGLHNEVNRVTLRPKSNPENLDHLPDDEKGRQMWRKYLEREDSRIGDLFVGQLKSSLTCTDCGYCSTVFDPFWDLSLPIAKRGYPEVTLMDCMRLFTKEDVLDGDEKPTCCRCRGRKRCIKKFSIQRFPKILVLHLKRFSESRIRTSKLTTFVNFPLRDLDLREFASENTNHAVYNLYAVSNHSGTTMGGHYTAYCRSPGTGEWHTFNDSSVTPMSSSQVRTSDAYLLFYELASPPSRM
Description: (§5) FIGS. 5A-5E show validation of hit compounds.
as §2

[9] = system: Trypsin; assay: IQF di-ubiquitin assay, trypsin specificity; format: biochemical; conditions: Trypsin 125 nM, K63-Ub substrate
Description: as §5, §2

[10] = target: BRISC BRCC36 Trp130Ala (Homo sapiens, UniProt P46736+Q15018+Q9NXR7, W130A); assay: IQF DUB assay, BRISC mutant BRCC36 Trp130Ala; format: biochemical; conditions: FIG. 4C
Method: (§6) The four-subunit human BRISC (full-length (FL) and MERIT40ΔN, Abraxas2ΔC) complex was cloned using the MultiBac system and co-expressed in Spodoptera frugiperda (Sf9) insect cells^32. BRISC mutants were cloned into pFastBac vectors in the Bac-to-Bac system (ThermoFisher), baculoviruses generated in Sf9 cells and used for co-infection of Trichoplusia ni (Tni) cells. All BRISC complexes were purified as previously described^12,13.
as §1, with “20 μL enzyme reactions were carried out in 384-well black flat-bottom low flange plates (Corning; 35373).” left out, “slope). […]” for “slope).”

[11] = target: BRISC BRCC36 Leu169Ala (Homo sapiens, UniProt P46736+Q15018+Q9NXR7, L169A); assay: IQF DUB assay, BRISC mutant BRCC36 Leu169Ala; format: biochemical; conditions: FIG. 4C
Method: as §6
as §1, with “20 μL enzyme reactions were carried out in 384-well black flat-bottom low flange plates (Corning; 35373).” left out, “slope). […]” for “slope).”

[12] = target: BRISC Abraxas2 Thr140Ala (Homo sapiens, UniProt P46736+Q15018+Q9NXR7, T140A); assay: IQF DUB assay, BRISC mutant Abraxas2 Thr140Ala; format: biochemical; conditions: FIG. 4C
Method: as §6
as §1, with “20 μL enzyme reactions were carried out in 384-well black flat-bottom low flange plates (Corning; 35373).” left out, “slope). […]” for “slope).”

[13] = target: T1, BRISC; parameters: made in house; host or cells: Spodoptera frugiperda (Sf9) insect cells; conditions: BRISC WT, reference 13; cited from earlier work

O=C(NC1CCN(C(=O)c2c(Cl)cccc2Cl)CC1)c1n[nH]cc1NC(=O)c1c(Cl)cccc1Cl [AP-5-144]
inhibition of BRISC DUB activity [1]: no inhibition

O=C(NC1CCNCC1)c1[nH]ncc1NC(=O)c1c(Cl)cccc1Cl [AT7519, reference compound]
inhibition of BRISC DUB activity [1]: neither were found to inhibit

O=C(NC1CCNCC1)c1nn(C(=O)c2c(Cl)cccc2Cl)cc1NC(=O)c1c(Cl)cccc1Cl [JMS-175-2]
inhibition of AMSH-LP [2]: no inhibition | specificity for BRISC over ARISC [3]: specifically inhibits BRISC over | specificity for BRISC over ARISC-RAP80 [4]: specifically inhibits BRISC over | mass photometry counts, 1:1:1:1 complex [5]: 8% | mass photometry counts, dimer [5]: 69% | mass photometry counts, monomer [5]: 14% | dimer formation at increasing inhibitor concentration [6]: dose-dependent increase in dimer formation | BRISC species by native mass spectrometry [7]: BRISC dimers with a MW consistent with a 4:4:4:4 stoichiometry were observed | IC50 ([1]; IQF K63-linked diUb substrate, FIG. 1D, read-out: IC50 inhibiting BRISC): 1500 nM | inhibition of BRISC DUB activity [1]: specific inhibition

Nc1ccc(C(=O)Nc2cccc(-c3nc(N4CCOCC4)c4oc5ncccc5c4n3)c2)cn1 [YM201636]
inhibition of USP2 [8]: inhibited | inhibition of trypsin [9]: inhibited | inhibition of BRISC DUB activity [1]: inhibited

B1: serine hydroxymethyltransferase (protein)
chain: QLVRMAIRAQHSNAAQTQTGEANRGWTGQESLSDSDPEMWELLQREKDRQCRGLELIASENFCSRAALEALGSCLNNKYSEGYPGKRYYGGAEVVDEIELLCQRRALEAFDLDPAQWGVNVQPYSGSPANLAVYTALLQPHDRIMGLDLPDGGHLTHGYMSDVKRISATSIFFESMPYKLNPKTGLIDYNQLALTARLFRPRLIIAGTSAYARLIDYARMREVCDEVKAHLLADMAHISGLVAAKVIPSPFKHADIVTTTTHKTLRGARSGLIFYRKGVKAVDPKTGREIPYTFEDRINFAVFPSLQGGPHNHAIAAVAVALKQACTPMFREYSLQVLKNARAMADALLERGYSLVSGGTDNHLVLVDLRPKGLDGARAERVLELVSITANKNTCPGDRSAITPGGLRLGAPALTSRQFREDDFRRVVDFIDEGVNIGLEVKSKTAKLQDFKSFLLKDSETSQRLANLRQRVEQFARAFPMPGFDEH
inhibition in the presence of SHMT2 [10]: reduced inhibition | inhibition in the presence of SHMT2 [11]: reduced inhibition | inhibition in the presence of SHMT2 [12]: reduced inhibition | inhibition of BRISC DUB activity [13]: potent inhibitor
